Source: patent US8841450B2, “Compounds useful as inhibitors of ATR kinase” (Vertex Pharmaceuticals Incorporated, priority 2011, dated 2014)

Molecular target: ATR kinase (Homo sapiens (Human), UniProt Q13535)
Test: ATR Inhibition Assay (radioactive-phosphate incorporation)
Type: biochemical
Conditions: Ki(app); 5 nM full-length ATR, 10 μM [γ-33P]ATP, 800 μM target peptide, 25° C.
Description: Compounds were screened for their ability to inhibit ATR kinase using a radioactive-phosphate incorporation assay. Assays were carried out in a mixture of 50 mM Tris/HCl (pH 7.5), 10 mM MgCl2 and 1 mM DTT. Final substrate concentrations were 10 μM [γ-33P]ATP (3mCi 33P ATP/mmol ATP, Perkin Elmer) and 800 μM target peptide (ASELPASQPQPFSAKKK).
Assays were carried out at 25° C. in the presence of 5 nM full-length ATR. An assay stock buffer solution was prepared containing all of the reagents listed above, with the exception of ATP and the test compound of interest. 13.5 μL of the stock solution was placed in a 96 well plate followed by addition of 2 μL of DMSO stock containing serial dilutions of the test compound (typically starting from a final concentration of 15 μM with 3-fold serial dilutions) in duplicate (final DMSO concentration 7%). The plate was pre-incubated for 10 minutes at 25° C. and the reaction initiated by addition of 15 μL [γ-33P]ATP (final concentration 10 μM).
The reaction was stopped after […] by the addition of 30 μL 0.1M phosphoric acid containing 2 mM ATP. […]
After removing mean background values for all of the data points, Ki(app) data were calculated from non-linear regression analysis of the initial rate data using the Prism software package (GraphPad Prism version 3.0cx for Macintosh, GraphPad Software, San Diego, Calif., USA).

ATR kinase, sequence (Q13535 whole entry): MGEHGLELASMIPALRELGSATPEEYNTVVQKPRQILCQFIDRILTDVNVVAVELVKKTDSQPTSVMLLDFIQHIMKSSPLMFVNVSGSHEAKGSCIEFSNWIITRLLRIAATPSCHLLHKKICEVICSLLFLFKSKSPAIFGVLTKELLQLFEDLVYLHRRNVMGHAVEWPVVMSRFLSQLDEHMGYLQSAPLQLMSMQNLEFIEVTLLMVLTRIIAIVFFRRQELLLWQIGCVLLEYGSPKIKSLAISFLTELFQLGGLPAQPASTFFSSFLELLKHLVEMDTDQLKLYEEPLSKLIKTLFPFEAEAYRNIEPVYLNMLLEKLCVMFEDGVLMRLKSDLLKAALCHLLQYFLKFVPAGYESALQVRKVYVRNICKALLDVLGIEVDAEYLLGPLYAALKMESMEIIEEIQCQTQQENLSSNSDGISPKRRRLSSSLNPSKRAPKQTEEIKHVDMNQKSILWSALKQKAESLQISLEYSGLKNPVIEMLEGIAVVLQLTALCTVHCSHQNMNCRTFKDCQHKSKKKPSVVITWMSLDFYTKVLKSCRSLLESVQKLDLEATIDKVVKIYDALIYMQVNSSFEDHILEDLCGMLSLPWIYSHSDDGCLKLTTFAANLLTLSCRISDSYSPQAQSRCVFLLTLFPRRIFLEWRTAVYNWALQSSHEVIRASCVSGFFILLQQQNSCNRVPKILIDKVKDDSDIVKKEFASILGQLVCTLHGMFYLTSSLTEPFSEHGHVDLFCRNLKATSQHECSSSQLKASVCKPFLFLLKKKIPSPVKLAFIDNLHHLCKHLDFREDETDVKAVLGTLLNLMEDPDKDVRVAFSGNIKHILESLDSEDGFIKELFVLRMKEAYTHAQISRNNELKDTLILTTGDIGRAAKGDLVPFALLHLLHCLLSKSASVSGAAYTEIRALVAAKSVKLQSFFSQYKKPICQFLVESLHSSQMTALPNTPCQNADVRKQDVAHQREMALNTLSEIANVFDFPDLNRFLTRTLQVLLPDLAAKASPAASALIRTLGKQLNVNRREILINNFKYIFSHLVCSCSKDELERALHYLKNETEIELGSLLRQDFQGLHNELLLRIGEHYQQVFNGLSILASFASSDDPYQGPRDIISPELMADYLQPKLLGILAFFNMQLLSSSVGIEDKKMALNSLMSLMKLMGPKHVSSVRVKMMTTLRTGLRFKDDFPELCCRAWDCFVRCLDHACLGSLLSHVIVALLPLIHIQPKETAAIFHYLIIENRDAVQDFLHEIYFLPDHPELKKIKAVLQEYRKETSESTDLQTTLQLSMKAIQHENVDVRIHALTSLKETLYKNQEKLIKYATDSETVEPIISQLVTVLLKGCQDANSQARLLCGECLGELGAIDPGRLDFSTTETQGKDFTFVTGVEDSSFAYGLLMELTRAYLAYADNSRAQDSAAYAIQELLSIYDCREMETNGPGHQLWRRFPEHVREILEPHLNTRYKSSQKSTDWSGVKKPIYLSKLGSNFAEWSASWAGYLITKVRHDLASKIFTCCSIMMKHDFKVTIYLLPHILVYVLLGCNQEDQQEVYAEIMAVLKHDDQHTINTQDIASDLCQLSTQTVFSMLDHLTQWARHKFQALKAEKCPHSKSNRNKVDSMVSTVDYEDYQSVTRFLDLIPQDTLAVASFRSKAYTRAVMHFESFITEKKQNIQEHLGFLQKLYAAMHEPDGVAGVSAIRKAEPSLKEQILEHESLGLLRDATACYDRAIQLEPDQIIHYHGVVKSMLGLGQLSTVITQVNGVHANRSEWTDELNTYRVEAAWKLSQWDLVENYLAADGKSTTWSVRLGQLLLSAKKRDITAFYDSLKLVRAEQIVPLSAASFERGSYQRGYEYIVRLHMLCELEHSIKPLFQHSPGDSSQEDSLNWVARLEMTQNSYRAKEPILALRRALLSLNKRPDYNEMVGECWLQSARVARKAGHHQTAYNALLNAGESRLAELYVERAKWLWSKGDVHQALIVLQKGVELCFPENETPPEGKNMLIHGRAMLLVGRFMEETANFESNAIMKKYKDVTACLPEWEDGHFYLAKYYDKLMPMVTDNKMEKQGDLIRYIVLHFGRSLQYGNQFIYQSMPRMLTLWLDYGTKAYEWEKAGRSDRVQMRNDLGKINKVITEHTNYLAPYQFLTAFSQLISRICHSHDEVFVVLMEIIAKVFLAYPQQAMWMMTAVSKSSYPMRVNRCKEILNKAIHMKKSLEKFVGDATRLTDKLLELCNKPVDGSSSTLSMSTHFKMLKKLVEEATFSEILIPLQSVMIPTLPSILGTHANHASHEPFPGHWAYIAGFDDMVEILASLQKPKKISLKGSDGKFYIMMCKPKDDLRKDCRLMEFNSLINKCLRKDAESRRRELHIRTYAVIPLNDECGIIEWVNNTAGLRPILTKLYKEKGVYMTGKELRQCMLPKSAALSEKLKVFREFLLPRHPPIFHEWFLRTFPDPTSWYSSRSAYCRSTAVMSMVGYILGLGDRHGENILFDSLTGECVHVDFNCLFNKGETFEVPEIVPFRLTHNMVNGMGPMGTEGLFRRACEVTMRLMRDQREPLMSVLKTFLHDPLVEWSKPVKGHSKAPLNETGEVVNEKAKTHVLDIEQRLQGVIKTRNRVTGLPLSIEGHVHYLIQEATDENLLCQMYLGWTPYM

Ki: 16 nM
Compound: CC(C)S(=O)(=O)c1ccc(-c2cnc(N)c(C3CC(c4ccccc4)=NO3)n2)cc1 (stereo not shown) [Compound I-1, 5-(4-(isopropylsulfonyl)phenyl)-3-(3-phenyl-4,5-dihydroisoxazol-5-yl)pyrazin-2-amine]
